Laboratory results from ChEMBL document CHEMBL4507326, “Data for DCP probe TP-030-2” (2021).

Key:
[1] = molecular target: Dual specificity protein kinase CLK3 (Homo sapiens, UniProt P49761); test: CLK3(CLK3LGY1) Takeda global kinase panel
[2] = molecular target: Cyclin-dependent kinase 7 (Homo sapiens, UniProt P50613); test: CDK7(CDK7CGS1) Takeda global kinase panel
[3] = molecular target: Serine/threonine-protein kinase OSR1 (Homo sapiens, UniProt O95747); test: OSR1(OXS1LGY1) Takeda global kinase panel
[4] = molecular target: Serine/threonine-protein kinase Nek1 (Homo sapiens, UniProt Q96PY6); test: Nek1(NEK1LGY1) Takeda global kinase panel
[5] = molecular target: Cytoplasmic tyrosine-protein kinase BMX (Homo sapiens, UniProt P51813); test: Etk [BMX(BMX1CGF1)] Takeda global kinase panel
[6] = molecular target: Delta-type opioid receptor (Homo sapiens) (UniProt P41143); conditions: Compound concentration 10.0 uM
[7] = molecular target: Protein kinase C epsilon type (Homo sapiens, UniProt Q02156); test: PKCepsilon(PRKELHY1) Takeda global kinase panel
[8] = molecular target: 5-hydroxytryptamine receptor 2C (Homo sapiens) (UniProt P28335); conditions: Compound concentration 10.0 uM
[9] = molecular target: Calcium/calmodulin-dependent protein kinase type 1G (Homo sapiens, UniProt Q96NX5); test: CaMK1gamma(CA1GLGN1) Takeda global kinase panel
[10] = molecular target: Dual specificity tyrosine-phosphorylation-regulated kinase 1A (Homo sapiens, UniProt Q13627); test: DYRK1A(DY1ALGP1) Takeda global kinase panel
[11] = molecular target: Sodium-dependent dopamine transporter (Homo sapiens) (UniProt Q01959); conditions: Compound concentration 10.0 uM
[12] = molecular target: Receptor-interacting serine/threonine-protein kinase 3 (Homo sapiens, UniProt Q9Y572); test: RIPK3(RIP3IGRI) Takeda global kinase panel
SRSF protein kinase 2 = SRSF protein kinase 2 (Homo sapiens, UniProt P78362); test: SRPK2(SRP2IGRL) Takeda global kinase panel
[13] = molecular target: D(1B) dopamine receptor (Homo sapiens) (UniProt P21918); conditions: Compound concentration 10.0 uM
[14] = molecular target: D(3) dopamine receptor (Homo sapiens) (UniProt P35462); conditions: Compound concentration 10.0 uM
TGF-beta receptor type-1 = TGF-beta receptor type-1 (Homo sapiens, UniProt P36897); test: TGFbetaR1(TGF1LGF1) Takeda global kinase panel
[15] = molecular target: Hormonally up-regulated neu tumor-associated kinase (Homo sapiens, UniProt P57058); test: HUNK(HUNKLGRN) Takeda global kinase panel
[16] = molecular target: Serine/threonine-protein kinase PLK1 (Homo sapiens, UniProt P53350); test: PLK1(PLK1LGY1) Takeda global kinase panel
[17] = molecular target: Cyclin-G-associated kinase (Homo sapiens, UniProt O14976); test: GAK(GAK1PGF1) Takeda global kinase panel
[18] = molecular target: Serine/threonine-protein kinase TBK1 (Homo sapiens, UniProt Q9UHD2); test: TBK1(TBK1CGF1) Takeda global kinase panel
[19] = molecular target: Serine/threonine-protein kinase PAK 6 (Homo sapiens, UniProt Q9NQU5); test: PAK6(PAK6CGY1) Takeda global kinase panel
[20] = molecular target: Serine/threonine-protein kinase N1 (Homo sapiens, UniProt Q16512); test: PKN1 [PRK1(PKN1LGY1)] Takeda global kinase panel
[21] = molecular target: Vascular endothelial growth factor receptor 2 (Homo sapiens, UniProt P35968); test: KDR(KDR1CGY1) Takeda global kinase panel
LIM domain kinase 2 = LIM domain kinase 2 (Homo sapiens, UniProt P53671); test: LIMK2(LIM2LGV1) Takeda global kinase panel
[22] = molecular target: Ribosomal protein S6 kinase alpha-5 (Homo sapiens, UniProt O75582); test: MSK1(R6A5LGY1) Takeda global kinase panel
[23] = molecular target: Serine/threonine-protein kinase SIK2 (Homo sapiens, UniProt Q9H0K1); test: QIK(SIK2LGY1) Takeda global kinase panel
[24] = molecular target: Tyrosine-protein kinase TXK (Homo sapiens, UniProt P42681); test: TXK(TXK1CGD5) Takeda global kinase panel
[25] = molecular target: G protein-coupled receptor kinase 6 (Homo sapiens, UniProt P43250); test: GRK6(GRK6LGP1) Takeda global kinase panel
[26] = molecular target: Sodium-dependent noradrenaline transporter (Homo sapiens) (UniProt P23975); conditions: Compound concentration 10.0 uM
[27] = molecular target: Histamine H4 receptor (Homo sapiens) (UniProt Q9H3N8); conditions: Compound concentration 10.0 uM
[28] = molecular target: Mitogen-activated protein kinase 13 (Homo sapiens, UniProt O15264); test: p38delta(MP13LGP1) Takeda global kinase panel
[29] = molecular target: STE20-related kinase adapter protein alpha (Homo sapiens, UniProt Q7RTN6); test: STLK5(STRAPHD1) Takeda global kinase panel
[30] = molecular target: D(4) dopamine receptor (Homo sapiens) (UniProt P21917); conditions: Compound concentration 10.0 uM
LIM domain kinase 1 = LIM domain kinase 1 (Homo sapiens, UniProt P53667); test: LIMK1(LIM1LGY1) Takeda global kinase panel
[31] = molecular target: 5-hydroxytryptamine receptor 7 (Homo sapiens) (UniProt P34969); conditions: Compound concentration 10.0 uM
[32] = molecular target: Serine/threonine-protein kinase D1 (Homo sapiens, UniProt Q15139); test: PKD1(PRD1LHY1) Takeda global kinase panel
[33] = molecular target: Cyclin-dependent kinase 4 (Homo sapiens, UniProt P11802); test: CDK4(CDK4CGS1) Takeda global kinase panel
[34] = molecular target: NT-3 growth factor receptor (Homo sapiens, UniProt Q16288); test: TRKC(NTR3LGN1) Takeda global kinase panel
[35] = molecular target: Substance-P receptor (Homo sapiens) (UniProt P25103); test: Inhibition of Tachykinin NK1 at 10 µM in the Eurofins-Panlabs radioligand binding assay (Eurofins_assay_255520); parameters: ligand concentration 0.8 nM; conditions: Compound concentration 10.0 uM
[36] = molecular target: Tyrosine-protein kinase Fes/Fps (Homo sapiens, UniProt P07332); test: Fes(FES1LHY1) Takeda global kinase panel
[37] = molecular target: Protein kinase C beta type (Homo sapiens, UniProt P05771); test: PKCbeta(PRKBPHY3) Takeda global kinase panel
[38] = molecular target: Serine/threonine-protein kinase pim-3 (Homo sapiens, UniProt Q86V86); test: Pim3(PIM3LGP1) Takeda global kinase panel
Myotonin-protein kinase = Myotonin-protein kinase (Homo sapiens, UniProt Q09013); test: DMPK(DMPKLGF1) Takeda global kinase panel
[39] = molecular target: Serine/threonine-protein kinase LATS1 (Homo sapiens, UniProt O95835); test: LATS1(LAT1LGRJ) Takeda global kinase panel
[40] = molecular target: Maternal embryonic leucine zipper kinase (Homo sapiens, UniProt Q14680); test: MELK(MELKLGF1) Takeda global kinase panel
[41] = molecular target: Sodium-dependent serotonin transporter (Homo sapiens) (UniProt P31645); conditions: Compound concentration 10.0 uM

Cyclin-dependent kinase 4, sequence (P11802 whole entry): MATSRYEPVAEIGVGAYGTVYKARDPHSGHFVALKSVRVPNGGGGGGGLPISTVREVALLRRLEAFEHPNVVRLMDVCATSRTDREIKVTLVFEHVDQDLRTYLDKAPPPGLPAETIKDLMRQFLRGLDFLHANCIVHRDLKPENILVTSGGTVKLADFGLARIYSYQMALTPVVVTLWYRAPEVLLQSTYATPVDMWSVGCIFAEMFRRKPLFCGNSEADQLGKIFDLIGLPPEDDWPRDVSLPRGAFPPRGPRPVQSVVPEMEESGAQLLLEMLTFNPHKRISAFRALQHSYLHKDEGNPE
SRSF protein kinase 2, sequence (P78362 whole entry): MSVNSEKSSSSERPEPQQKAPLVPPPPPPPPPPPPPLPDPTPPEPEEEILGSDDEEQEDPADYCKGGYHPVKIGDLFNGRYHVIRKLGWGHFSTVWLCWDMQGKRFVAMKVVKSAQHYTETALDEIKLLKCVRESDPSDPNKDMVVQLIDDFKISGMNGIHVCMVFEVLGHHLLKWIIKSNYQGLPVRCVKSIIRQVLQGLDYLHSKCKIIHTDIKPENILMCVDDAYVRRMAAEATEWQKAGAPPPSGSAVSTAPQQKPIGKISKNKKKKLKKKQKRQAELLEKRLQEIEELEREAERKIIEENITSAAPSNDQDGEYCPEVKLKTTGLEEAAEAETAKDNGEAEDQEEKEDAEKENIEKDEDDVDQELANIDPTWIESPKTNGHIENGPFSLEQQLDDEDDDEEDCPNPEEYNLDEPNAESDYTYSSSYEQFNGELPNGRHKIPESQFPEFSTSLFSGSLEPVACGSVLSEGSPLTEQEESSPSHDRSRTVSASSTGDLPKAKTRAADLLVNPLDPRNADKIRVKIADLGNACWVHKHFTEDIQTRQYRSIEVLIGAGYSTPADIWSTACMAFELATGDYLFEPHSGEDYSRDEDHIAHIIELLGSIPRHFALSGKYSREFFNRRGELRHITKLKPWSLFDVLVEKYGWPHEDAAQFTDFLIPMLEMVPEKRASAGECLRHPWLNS
Mitogen-activated protein kinase 13, sequence (O15264 whole entry): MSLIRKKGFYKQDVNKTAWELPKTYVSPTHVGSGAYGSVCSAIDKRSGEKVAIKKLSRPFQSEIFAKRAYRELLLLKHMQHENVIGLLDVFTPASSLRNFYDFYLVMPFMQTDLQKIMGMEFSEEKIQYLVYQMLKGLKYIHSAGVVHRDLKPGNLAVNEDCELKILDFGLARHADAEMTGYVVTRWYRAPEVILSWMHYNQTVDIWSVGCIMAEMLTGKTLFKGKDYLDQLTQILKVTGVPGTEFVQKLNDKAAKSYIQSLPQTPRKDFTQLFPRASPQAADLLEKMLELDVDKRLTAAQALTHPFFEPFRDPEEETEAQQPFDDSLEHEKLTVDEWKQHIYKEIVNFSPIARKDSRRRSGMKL
LIM domain kinase 1, sequence (P53667 whole entry, the tested form may be a part): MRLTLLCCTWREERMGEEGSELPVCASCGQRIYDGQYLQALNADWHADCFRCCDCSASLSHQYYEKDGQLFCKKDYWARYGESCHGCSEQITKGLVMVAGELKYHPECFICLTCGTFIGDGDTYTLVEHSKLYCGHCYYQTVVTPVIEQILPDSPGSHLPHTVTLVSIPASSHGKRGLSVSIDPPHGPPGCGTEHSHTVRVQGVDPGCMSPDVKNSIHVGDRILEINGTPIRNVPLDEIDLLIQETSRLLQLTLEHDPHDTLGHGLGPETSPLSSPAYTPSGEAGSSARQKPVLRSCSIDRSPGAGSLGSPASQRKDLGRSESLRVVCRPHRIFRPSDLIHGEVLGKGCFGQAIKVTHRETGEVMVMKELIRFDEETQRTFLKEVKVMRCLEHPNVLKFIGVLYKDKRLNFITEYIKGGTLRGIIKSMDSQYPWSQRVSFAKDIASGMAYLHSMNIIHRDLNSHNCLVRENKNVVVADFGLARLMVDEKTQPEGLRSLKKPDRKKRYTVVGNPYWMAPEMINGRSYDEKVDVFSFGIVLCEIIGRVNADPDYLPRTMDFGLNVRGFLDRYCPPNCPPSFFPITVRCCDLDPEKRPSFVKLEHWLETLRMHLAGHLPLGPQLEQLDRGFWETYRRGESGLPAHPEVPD
5-hydroxytryptamine receptor 2C (Homo sapiens), sequence (P28335 whole entry): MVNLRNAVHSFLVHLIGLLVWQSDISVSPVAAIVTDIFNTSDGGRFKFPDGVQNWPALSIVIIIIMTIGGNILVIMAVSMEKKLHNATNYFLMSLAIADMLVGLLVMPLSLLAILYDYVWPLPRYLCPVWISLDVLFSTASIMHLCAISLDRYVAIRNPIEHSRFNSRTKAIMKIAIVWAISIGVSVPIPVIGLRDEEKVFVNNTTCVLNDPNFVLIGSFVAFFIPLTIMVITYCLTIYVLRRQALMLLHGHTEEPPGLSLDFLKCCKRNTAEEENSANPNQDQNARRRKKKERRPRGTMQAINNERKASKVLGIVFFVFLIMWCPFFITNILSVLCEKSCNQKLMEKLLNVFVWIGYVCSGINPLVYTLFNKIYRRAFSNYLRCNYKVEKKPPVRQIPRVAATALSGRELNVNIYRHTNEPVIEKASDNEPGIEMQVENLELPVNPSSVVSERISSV
Cyclin-G-associated kinase, sequence (O14976 whole entry): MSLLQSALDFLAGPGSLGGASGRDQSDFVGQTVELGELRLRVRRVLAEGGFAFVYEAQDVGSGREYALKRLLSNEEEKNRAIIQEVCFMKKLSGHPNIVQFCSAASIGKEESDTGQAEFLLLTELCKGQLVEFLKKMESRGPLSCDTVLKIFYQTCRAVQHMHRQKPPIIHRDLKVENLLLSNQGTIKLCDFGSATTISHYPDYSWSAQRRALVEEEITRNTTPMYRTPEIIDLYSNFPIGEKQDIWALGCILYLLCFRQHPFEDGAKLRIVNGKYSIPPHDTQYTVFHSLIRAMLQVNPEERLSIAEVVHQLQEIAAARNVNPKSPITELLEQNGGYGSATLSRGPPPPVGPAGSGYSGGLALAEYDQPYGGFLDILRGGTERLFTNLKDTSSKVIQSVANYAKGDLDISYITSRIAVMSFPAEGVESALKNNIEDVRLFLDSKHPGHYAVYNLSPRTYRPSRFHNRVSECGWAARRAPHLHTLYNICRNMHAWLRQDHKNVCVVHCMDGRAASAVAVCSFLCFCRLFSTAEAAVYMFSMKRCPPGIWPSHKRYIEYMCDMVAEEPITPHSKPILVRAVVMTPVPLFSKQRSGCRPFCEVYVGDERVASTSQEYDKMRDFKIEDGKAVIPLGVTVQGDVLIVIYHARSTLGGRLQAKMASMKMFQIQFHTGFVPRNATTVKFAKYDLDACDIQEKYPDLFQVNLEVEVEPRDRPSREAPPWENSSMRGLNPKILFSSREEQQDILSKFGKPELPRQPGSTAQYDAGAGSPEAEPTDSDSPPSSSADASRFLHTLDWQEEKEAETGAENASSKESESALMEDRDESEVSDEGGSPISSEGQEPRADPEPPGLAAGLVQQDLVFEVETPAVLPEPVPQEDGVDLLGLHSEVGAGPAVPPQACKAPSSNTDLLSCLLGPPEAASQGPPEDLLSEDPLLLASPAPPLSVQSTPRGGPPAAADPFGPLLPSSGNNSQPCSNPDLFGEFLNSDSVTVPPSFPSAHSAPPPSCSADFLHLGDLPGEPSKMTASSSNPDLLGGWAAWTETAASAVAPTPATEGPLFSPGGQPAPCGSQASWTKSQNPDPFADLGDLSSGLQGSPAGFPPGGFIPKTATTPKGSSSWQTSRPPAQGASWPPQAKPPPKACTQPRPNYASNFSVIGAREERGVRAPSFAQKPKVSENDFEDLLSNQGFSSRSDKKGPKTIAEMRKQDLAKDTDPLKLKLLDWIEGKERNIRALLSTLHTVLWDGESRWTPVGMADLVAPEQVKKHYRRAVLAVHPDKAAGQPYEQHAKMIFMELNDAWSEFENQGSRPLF
Serine/threonine-protein kinase PLK1, sequence (P53350 whole entry): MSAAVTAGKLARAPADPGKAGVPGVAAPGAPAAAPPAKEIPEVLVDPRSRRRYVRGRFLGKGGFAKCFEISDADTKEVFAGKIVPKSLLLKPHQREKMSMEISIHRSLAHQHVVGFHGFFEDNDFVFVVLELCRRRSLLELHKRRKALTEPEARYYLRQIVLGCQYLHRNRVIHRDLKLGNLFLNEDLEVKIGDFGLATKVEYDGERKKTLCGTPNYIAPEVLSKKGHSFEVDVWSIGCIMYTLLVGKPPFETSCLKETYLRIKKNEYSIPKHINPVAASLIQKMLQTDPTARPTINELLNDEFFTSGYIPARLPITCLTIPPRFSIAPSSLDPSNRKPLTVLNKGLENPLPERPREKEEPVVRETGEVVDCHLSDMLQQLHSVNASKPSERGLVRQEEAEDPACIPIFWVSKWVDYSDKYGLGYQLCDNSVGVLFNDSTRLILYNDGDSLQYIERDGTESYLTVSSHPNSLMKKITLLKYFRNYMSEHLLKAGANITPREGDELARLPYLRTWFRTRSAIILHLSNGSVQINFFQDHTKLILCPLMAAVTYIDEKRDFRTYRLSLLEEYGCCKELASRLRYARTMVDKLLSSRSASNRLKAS
Dual specificity protein kinase CLK3, sequence (P49761 whole entry): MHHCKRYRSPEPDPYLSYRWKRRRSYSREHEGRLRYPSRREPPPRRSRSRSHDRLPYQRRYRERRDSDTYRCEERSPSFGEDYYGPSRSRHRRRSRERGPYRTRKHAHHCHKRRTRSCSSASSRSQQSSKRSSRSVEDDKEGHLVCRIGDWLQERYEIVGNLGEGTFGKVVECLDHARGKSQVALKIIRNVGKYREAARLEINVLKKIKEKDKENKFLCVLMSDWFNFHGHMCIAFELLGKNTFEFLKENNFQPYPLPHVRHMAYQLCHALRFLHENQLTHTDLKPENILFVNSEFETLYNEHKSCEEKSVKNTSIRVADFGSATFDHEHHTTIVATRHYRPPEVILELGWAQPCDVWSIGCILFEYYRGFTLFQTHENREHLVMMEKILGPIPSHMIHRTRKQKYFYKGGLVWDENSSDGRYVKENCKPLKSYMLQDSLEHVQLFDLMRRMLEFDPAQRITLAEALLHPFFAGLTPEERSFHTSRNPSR

## CN1C(=O)[C@@H](N2CCc3c(nn(Cc4ccccc4)c3Br)C2=O)COc2ccccc21 [TP-030-2]
[1]
  IC50: 1000 nM
[2]
  IC50: 1000 nM
[3]
  IC50: 1000 nM
[4]
  IC50: 1000 nM
[5]
  IC50: 1000 nM
[6]
  inhibition: 8%
[7]
  IC50: 1000 nM
[8]
  inhibition: 2.4%
[9]
  IC50: 1000 nM
[10]
  IC50: 1000 nM
[11]
  inhibition: 35%
[12]
  IC50: 1000 nM
SRSF protein kinase 2
  IC50: 1000 nM
[13]
  inhibition: 41.7%
[14]
  inhibition: 14%
TGF-beta receptor type-1
  IC50: 1000 nM
[15]
  IC50: 1000 nM
[16]
  IC50: 1000 nM
[17]
  IC50: 1000 nM
[18]
  IC50: 1000 nM
[19]
  IC50: 1000 nM
[20]
  IC50: 1000 nM
[21]
  IC50: 1000 nM
LIM domain kinase 2
  IC50: 1000 nM
[22]
  IC50: 1000 nM
[23]
  IC50: 1000 nM
[24]
  IC50: 1000 nM
[25]
  IC50: 1000 nM
[26]
  inhibition: 27%
[27]
  inhibition: 14.7%
[28]
  IC50: 1000 nM
[29]
  IC50: 1000 nM
[30]
  inhibition: 8.9%
LIM domain kinase 1
  IC50: 1000 nM
[31]
  inhibition: 5.69%
[32]
  IC50: 1000 nM
[33]
  IC50: 1000 nM
[34]
  IC50: 1000 nM
[35]
  inhibition: 17%
[36]
  IC50: 1000 nM
[37]
  IC50: 1000 nM
[38]
  IC50: 1000 nM
Myotonin-protein kinase
  IC50: 1000 nM
[39]
  IC50: 1000 nM
[40]
  IC50: 1000 nM
[41]
  inhibition: 22.6%
